Test results as given in patent publication US10208033B2, “β-carboline, dihydro-β-carboline and tetrahydro-β-carboline alkaloid derivatives and preparation methods same and use in aspects of preventing and treating plant viruses, fungicides and insecticides” (NANKAI UNIVERSITY, priority 2013, dated 2019).

Assays:
Alternaria solani = experiment: Fungicidal (bactericidal) activity in vitro, PDA colony diameter; type: cell-based; conditions: 50 mg/kg
potato late blight = experiment: microbe, parasite or virus in culture; type: cell-based
Rhizoctonia solani = experiment: Fungicidal (bactericidal) activity in vitro, PDA colony diameter; type: cell-based; conditions: 50 mg/kg
[1] = system: tobacco mosaic virus (TMV); experiment: Anti-TMV in vivo inactivation; set-up: species or system tobacco mosaic virus (host Nicotiana tabacum L.cv.Xanthi NN)
armyworms = type: in vivo; conditions: concentration 600 mg/kg
Phytophthora capsici = experiment: Fungicidal (bactericidal) activity in vitro, PDA colony diameter; type: cell-based; conditions: 50 mg/kg
Macrophoma kawatsukai = experiment: as above; type: cell-based; conditions: 50 mg/kg
corn borers = conditions: concentration 600 mg/kg
Fusarium graminearumt = experiment: microbe, parasite or virus in culture; type: cell-based; conditions: 50 mg/kg
Fusarium fujikuroi = experiment: Fungicidal (bactericidal) activity in vitro, PDA colony diameter; type: cell-based; conditions: 50 mg/kg
Botrytis cinerea = experiment: as above; type: cell-based; conditions: 50 mg/kg
[2] = system: tobacco mosaic virus (TMV); experiment: Anti-TMV in vitro effect (half-leaf soaking); type: cell-based, tobacco mosaic virus (host Nicotiana tabacum L.cv.Xanthi NN)
cucumber fusarium wilt = experiment: Fungicidal (bactericidal) activity in vitro, PDA colony diameter; type: cell-based; conditions: 50 mg/kg
[3] = system: tobacco mosaic virus (TMV); experiment: Anti-TMV in vivo therapeutic effect; set-up: species or system tobacco mosaic virus (host Nicotiana tabacum L.cv.Xanthi NN)
Bipolaria maydis = experiment: organism not typed; type: cell-based; conditions: 50 mg/kg
[4] = system: Colletotrichum orbiculare; experiment: Fungicidal (bactericidal) activity in vitro, PDA colony diameter; type: cell-based; conditions: 50 mg/kg
mosquito larvae = experiment: whole plant or invertebrate; conditions: 24 h
Outline: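 Early fourth-instar Culex pipiens pallens larvae from an indoor colony, 10 per beaker, exposed to test compound at 5 ppm in water, diluted from a 1000 ppm acetone mother solution. Blank: water containing 0.5 mL test solvent.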

Sclerotinia scleotiorum = experiment: Fungicidal (bactericidal) activity in vitro, PDA colony diameter; type: cell-based; conditions: 50 mg/kg
cotton bollworms = experiment: whole plant or invertebrate; conditions: concentration 600 mg/kg
Experimental: Experimental method of cotton bollworms: feed and drug mixing method: measure 3 mL of prepared solution and add it to about 27 g of newly prepared feed, thereby obtaining needed concentration through dilution by 10 times.

Rhizoctonia cereali = experiment: Fungicidal (bactericidal) activity in vitro, PDA colony diameter; type: cell-based; conditions: 50 mg/kg
[5] = system: tobacco mosaic virus (TMV); experiment: Anti-TMV in vivo protective effect; set-up: species or system tobacco mosaic virus (host Nicotiana tabacum L.cv.Xanthi NN)
Cercospora arachidicola = experiment: Fungicidal (bactericidal) activity in vitro, PDA colony diameter; type: cell-based; conditions: 50 mg/kg

| SMILES | Bactericidal activity (%) Alternaria solani (Alternaria solani) [%] | Bactericidal activity (%) potato late blight (potato late blight) [%] | Bactericidal activity (%) Rhizoctonia solani (Rhizoctonia solani) [%] | Relative inhibition rate (%) In vivo inactivation ([1]; treatment dose 100 μg/mL) [%] | Relative inhibition rate (%) In vivo inactivation ([1]; treatment dose 500 μg/mL) [%] | Armyworm Mortality (%) (armyworms) | Bactericidal activity (%) Phytophthora capsici (Phytophthora capsici) [%] | Bactericidal activity (%) Macrophoma kawatsukai (Macrophoma kawatsukai) [%] | Corn borer Mortality (%) (corn borers) | Bactericidal activity (%) Fusarium graminearumt (Fusarium graminearumt) [%] | Bactericidal activity (%) Fusarium fujikuroi (Fusarium fujikuroi) [%] | Bactericidal activity (%) Botrytis cinerea (Botrytis cinerea) [%] | Relative inhibition rate (%) In vitro activity ([2]; treatment dose 100 μg/mL) [%] | Relative inhibition rate (%) In vitro activity ([2]; treatment dose 500 μg/mL) [%] | Bactericidal activity (%) Cucumber fusarium wilt (cucumber fusarium wilt) [%] | Relative inhibition rate (%) In vivo therapy ([3]; treatment dose 100 μg/mL) [%] | Relative inhibition rate (%) In vivo therapy ([3]; treatment dose 500 μg/mL) [%] | Bactericidal activity (%) Bipolaria maydis (Bipolaria maydis) [%] | Bactericidal activity (%) Colletotrichum orbiculare [4] [%] | Mosquito larvae Mortality (%) (mosquito larvae; concentration 10 mg/kg) | other results |
| --- | --- | --- | --- | --- | --- | --- | --- | --- | --- | --- | --- | --- | --- | --- | --- | --- | --- | --- | --- | --- | --- |
| C[C@@H]1N[C@H](C(=O)NN=CC2CCCCC2)Cc2c1[nH]c1ccccc21 [Ic-25, (1S, 3S)—N′-(cyclohexylmethylene)-1-methyl-2,3,4,9-tetrahydropyridino [3,4-b] indol-3-formylhydrazine] | 19.0 | 17.4 | 5.6 | 36.3 | 75.8 | 45 | 9.1 | 33.3 | 55 | 30.8 | 41.2 | 66.7 | 31.2 | 59.6 | 4.5 | 30.4 | 62.8 | 36.0 | 24.0 | 100 | Mosquito larvae Mortality (%) (mosquito larvae; concentration 5 mg/kg): 10%; Bactericidal activity (%) Sclerotinia scleotiorum (Sclerotinia scleotiorum): 21.2%; Cotton bollworm Mortality (%) (cotton bollworms): 20%; Bactericidal activity (%) Rhizoctonia cereali (Rhizoctonia cereali): 29.7%; Relative inhibition rate (%) In vivo protection ([5]; treatment dose 100 μg/mL): 25.7%; Relative inhibition rate (%) In vivo protection ([5]; treatment dose 500 μg/mL): 69.2%; Bactericidal activity (%) Cercospora arachidicola (Cercospora arachidicola): 0.0% |
| C[C@@H]1N[C@H](C(=O)NN=CC(C)(C)C)Cc2c1[nH]c1ccccc21 [Ic-26, (1S, 3S)—N′-(2,2-dimethylpropylidene)-1-methyl-2,3,4,9-tetrahydropyridino [3,4-b] indol-3-formylhydrazine] | 19.0 | 17.4 | 8.3 | 28.9 | 63.7 | 25 | 12.1 | 36.4 | 30 | 46.2 | 29.4 | 36.1 | 27.5 | 64.4 | 4.5 | 36.8 | 68.2 | 20.0 | 24.0 | 55 | Bactericidal activity (%) Sclerotinia scleotiorum (Sclerotinia scleotiorum): 15.4%; Cotton bollworm Mortality (%) (cotton bollworms): 20%; Bactericidal activity (%) Rhizoctonia cereali (Rhizoctonia cereali): 48.6%; Relative inhibition rate (%) In vivo protection ([5]; treatment dose 100 μg/mL): 33.4%; Relative inhibition rate (%) In vivo protection ([5]; treatment dose 500 μg/mL): 66.8%; Bactericidal activity (%) Cercospora arachidicola (Cercospora arachidicola): 18.2% |
| CC(=NNC(=O)[C@@H]1Cc2c([nH]c3ccccc23)[C@H](C)N1)c1ccccc1 [Ic-27, (1S, 3S)—N′-(1-phenylethylidene)-1-methyl-2,3,4,9-tetrahydropyridino [3,4-b] indol-3-formylhydrazine] | 33.3 | 26.1 | 15.3 | 13.6 | 39.5 | 20 | 36.4 | 39.4 | 30 | 61.5 | 29.4 | 69.4 | 9.2 | 30.2 | 0.0 | 11.1 | 34.8 | 36.0 | 52.0 | 40 | Bactericidal activity (%) Sclerotinia scleotiorum (Sclerotinia scleotiorum): 11.5%; Cotton bollworm Mortality (%) (cotton bollworms): 30%; Bactericidal activity (%) Rhizoctonia cereali (Rhizoctonia cereali): 51.4%; Relative inhibition rate (%) In vivo protection ([5]; treatment dose 100 μg/mL): 7.9%; Relative inhibition rate (%) In vivo protection ([5]; treatment dose 500 μg/mL): 37.2%; Bactericidal activity (%) Cercospora arachidicola (Cercospora arachidicola): 36.4% |
| C[C@@H]1N[C@H](C(=O)NN=C2CCCCC2)Cc2c1[nH]c1ccccc21 [Ic-29, (1S, 3S)—N′-cyclohexylidene-1-methyl-2,3,4,9-tetrahydropyridino [3,4-b] indol-3-formylhydrazine] | 19.0 | 26.1 | 15.3 | 12.8 | 33 | 20 | 12.1 | 9.1 | 15 | 46.2 | 29.4 | 52.8 | 8.6 | 43.4 | 0.0 | 10.9 | 41.9 | 32.0 | 32.0 | 45 | Bactericidal activity (%) Sclerotinia scleotiorum (Sclerotinia scleotiorum): 7.7%; Cotton bollworm Mortality (%) (cotton bollworms): 25%; Bactericidal activity (%) Rhizoctonia cereali (Rhizoctonia cereali): 48.6%; Relative inhibition rate (%) In vivo protection ([5]; in vivo): 46.2%; Relative inhibition rate (%) In vivo protection ([5]; treatment dose 100 μg/mL): 14.3%; Bactericidal activity (%) Cercospora arachidicola (Cercospora arachidicola): 18.2% |
| Cc1nnsc1C(=O)NNC(=O)[C@@H]1Cc2c([nH]c3ccccc23)[C@H](C)N1 [Id-2, 4-methyl-N′-((1S, 3S)-1-methyl-2,3,4,9-tetrahydropyridino [3,4-b]indol-3-triformyl)-1,2,3-thiadiazole-5-formylhydrazine] | 14.3 | 30.4 | 0.0 | 9.8 | 42.9 | 40 | 6.1 | 39.4 | 40 | 53.8 | 29.4 | 61.1 | 13.5 | 41.2 | 4.5 | 19.1 | 48.8 | 28.0 | 24.0 | 80 | Bactericidal activity (%) Sclerotinia scleotiorum (Sclerotinia scleotiorum): 19.2%; Cotton bollworm Mortality (%) (cotton bollworms): 40%; Bactericidal activity (%) Rhizoctonia cereali (Rhizoctonia cereali): 45.9%; Relative inhibition rate (%) In vivo protection ([5]; treatment dose 100 μg/mL): 16%; Relative inhibition rate (%) In vivo protection ([5]; treatment dose 500 μg/mL): 51.3%; Bactericidal activity (%) Cercospora arachidicola (Cercospora arachidicola): 18.2% |
